Measured values from PMC10488149 (International Journal of Molecular Sciences, 2023).

Tests used:
[1] = molecular target: T1, α1-acid glycoprotein (AGP) (Homo sapiens, UniProt P02763); assay: Fluorescence titration
Excerpt: Fluorescence spectra were collected using an emission detector module of the ChirascanPlus spectropolarimeter (APL), fixing the PMU of the detector at 600 mV. For every measurement, a 1 cm quartz cell, which is suitable for CD and fluorescence, was used. Experimental details: 1 cm cell pathlength, 500–310 nm emission scan, λexc 305 nm, and 5 nm excitation bandwidth.

[2] = molecular target: T1, α1-acid glycoprotein (AGP); format: binding
Description: (§1) The Hill fitting was performed with OriginLab.
(§2) The evaluation of molar enthalpies (ΔHm) and entropies (ΔSm) at the melting temperature for the melting process was calculated assuming a two-state native-to-unfolded model. The molar ratios at different temperatures were determined using the linear extrapolations of plateau at T >> Tm and T << Tm for the Boltzmann fitting curves, assuming that only denatured protein was present at T >> Tm and only native at T << Tm. The reversibility was assumed to be around Tm ± 5 °C, and the relative molar ratios for native and denatured species was used to determine the equilibrium constants and the associated Gibbs free energy (ΔGm, from ΔGm = −RT·lnK). Following the given relationship, ΔGm was supposed to be ~0 at the Tm (K^(Tm) ~ 1). ΔHm and ΔSm were calculated at Tm by interpolating with a linear model the ±5 °C region of the ΔGm vs. T curve around Tm, assuming the intercept corresponding to ΔHm, previous correction from °C to Kelvin, and the slope to −ΔSm, assuming a y = a − bx model, where ΔGm^(Tm) = ΔHm^(Tm) − TmΔSm^(Tm) at ΔGm^(Tm) = 0.
(§3) For the thermal denaturations, Boltzmann fitting with the equation y = y0 + A * (frac/(1 + exp ((x − x01)/k1)) + (1 − frac)/(1 + exp((x − x02)/k2))) was used. The SRCD spectra as a function of temperature were recorded with B23 module B with synchrotron operation at 300 or 350 mA, using rotating cell for thermal denaturation with 0.02 cm cell pathlength, 0.5 mm slit, 1 sec integration time, and 1 nm increment in the 260–180 nm spectral region.

[3] = molecular target: T1, α1-acid glycoprotein (AGP); assay: in vitro; conditions: isolated α1-acid glycoprotein (AGP) in solution
Description: SRCD single-spectra and UV denaturation experiments were recorded on the module B unit at B23 (Diamond Light Source, Didcot, UK) using a 6-cell sample turret. The following are the experimental parameters for UV denaturation: 30 scans, 260–180 nm range, 0.5 mm slit, 1 s integration time, 1 nm increment. The thermal denaturation experiments were performed with an Applied Photophysics (APL) ChirascanPlus spectropolarimeter. […] The baseline of water or buffer was subtracted from the CD spectra of proteins with or without ligands. Far-UV (180–250 nm) denaturation SRCD measurements were collected in 0.02 cm rotating cells with a 70 μL volume. Thermal denaturations were recorded with both B23 beamline and ChirascanPlus (APL, Leatherhead, UK). For CD titration, the protocol used was to measure the CD spectrum of each protein–ligand mixture at various ligand molar ratios by adding a small aliquot of ligand (few microliters of an appropriate concentration of ligand stock solution) to the protein in the cuvette cell. […] The same method was used for the titration via fluorescence spectroscopy.
The CD spectra were processed using CD Apps [27] and OriginPro. […] The evaluated parameters of melting temperature (Tm) were reported in °C and half-live (t1/2) for photo degradation in s (y = A1exp (−x/t1) + y0, t1/2 = t1log2). […]

[4] = molecular target: T2, human serum albumin (HSA) (Homo sapiens, UniProt P02768); assay: Thermal denaturation followed by CD at 191 nm; format: binding; conditions: HSA with ligand
T2 construct: purchased Sigma A3782
Description: as §1, §2, §3

T2 sequence (P02768 25-609): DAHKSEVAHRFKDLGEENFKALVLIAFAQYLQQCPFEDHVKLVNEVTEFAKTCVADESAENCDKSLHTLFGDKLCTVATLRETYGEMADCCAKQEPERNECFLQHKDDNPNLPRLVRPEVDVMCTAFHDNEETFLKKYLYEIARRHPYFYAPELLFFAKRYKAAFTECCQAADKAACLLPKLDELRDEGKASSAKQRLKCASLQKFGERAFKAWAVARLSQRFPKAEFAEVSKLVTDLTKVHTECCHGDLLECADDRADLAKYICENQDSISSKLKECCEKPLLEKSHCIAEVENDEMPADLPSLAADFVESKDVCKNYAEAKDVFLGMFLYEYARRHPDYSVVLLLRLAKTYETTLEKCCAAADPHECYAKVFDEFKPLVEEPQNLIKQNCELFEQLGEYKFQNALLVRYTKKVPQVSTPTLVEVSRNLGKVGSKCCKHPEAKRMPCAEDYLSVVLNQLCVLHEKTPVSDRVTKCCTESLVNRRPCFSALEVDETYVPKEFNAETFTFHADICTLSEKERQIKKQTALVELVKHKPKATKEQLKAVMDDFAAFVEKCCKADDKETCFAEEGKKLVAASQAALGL
T1 sequence (P02763 19-201): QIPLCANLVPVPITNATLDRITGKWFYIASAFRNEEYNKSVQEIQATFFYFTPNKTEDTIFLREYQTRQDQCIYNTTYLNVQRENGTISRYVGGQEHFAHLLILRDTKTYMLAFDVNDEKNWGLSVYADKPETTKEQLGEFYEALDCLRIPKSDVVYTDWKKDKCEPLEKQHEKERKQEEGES

| Structure (SMILES) | Kd [1] [µM] | Tm (°C) [B] [2] [°C] | ΔHm, Tm ([2]; AGP with ligand, linear fitting around Tm, AGP alone 127.8) [kJ^.mol^−1] | ΔSm, Tm ([2]; AGP with ligand, linear fitting around Tm, AGP alone 392.1) [J·K^−1·mol^−1] | Kd ([1]; isolated α1-acid glycoprotein (AGP) in solution) [µM] | Kd [3] [µM] | Tm (°C) [A] ([4]; Boltzmann fitting of experimental data, 191 nm, HSA alone 74.1) [°C] | Tm (°C) [B] ([4]; T at which ΔGm,Tm = 0, 191 nm, HSA alone 67.3) [°C] | ΔHm, Tm ([4]; linear fitting around Tm, HSA alone 85.8) [kJ^.mol^−1] | ΔSm, Tm ([4]; linear fitting around Tm, HSA alone 252.3) [J·K^−1·mol^−1] |
| --- | --- | --- | --- | --- | --- | --- | --- | --- | --- | --- |
| Cc1c(N)nc([C@H](CC(N)=O)NC[C@H](N)C(N)=O)nc1C(=O)N[C@H](C(=O)N[C@H](C)[C@@H](O)[C@H](C)C(=O)N[C@H](C(=O)NCCc1nc(-c2nc(C(=O)NCCC[S+](C)C)cs2)cs1)[C@@H](C)O)[C@@H](O[C@@H]1O[C@@H](CO)[C@@H](O)[C@H](O)[C@@H]1O[C@H]1O[C@H](CO)[C@@H](O)[C@H](OC(N)=O)[C@@H]1O)c1c[nH]cn1 [A2, bleomycin A2] | 13.2 | – | – | – | – | – | – | – | – | – |
| Cc1c(N)nc([C@H](CC(N)=O)NC[C@H](N)C(N)=O)nc1C(=O)N[C@H](C(=O)N[C@H](C)[C@@H](O)[C@H](C)C(=O)N[C@H](C(=O)NCCc1nc(-c2nc(C(=O)NCCCCNC(=N)N)cs2)cs1)[C@@H](C)O)[C@@H](O[C@@H]1O[C@@H](CO)[C@@H](O)[C@H](O)[C@@H]1O[C@H]1O[C@H](CO)[C@@H](O)[C@H](OC(N)=O)[C@@H]1O)c1c[nH]cn1 [B2, bleomycin B2] | – | 51.7 | 122.3 | 376.5 | 13.7 | 1.37 | 65.0 | 62.2 | 91.0 | 271.6 |
